Measured values taken from ChEMBL document CHEMBL3885861, “Open TG-GATES”.

Organism: Rattus norvegicus
Assay: Open TG-GATES - Regimen: Daily Repeat
Format: toxicity, organism-based, Sprague-Dawley
Parameters: regimen Daily Repeat, gender Male, age 6 weeks
Settings: in vivo, po, 0 mg/kg, route gavage, dose level Control; for APTT / Bas / Eos / Fbg / Hb / Ht / Lym / MCHC / MCV / Mono / Neu / PT / Plat / RBC / Ret / WBC / MCH: tissue Blood; for KIDNEY_L / KIDNEY_R / KIDNEY_TOTAL: tissue Kidney; for LIVER: tissue Liver; for ALP / ALT / AST / BUN / CRE / Ca / DBIL / GLC / K / LDH / Na / PL / RALB / TBIL / TC / TG / TP / gamma-GTP: tissue Plasma

CCCCc1oc2ccccc2c1C(=O)c1cc(I)c(OCCN(CC)CC)c(I)c1 [AMIODARONE]
TERMINAL_BW (72 h, time 3 day): 226.9 g | APTT (72 h, time 3 day): 18.2 s | Bas (72 h, time 3 day): 0% | Eos (72 h, time 3 day): 0.8% | Fbg (72 h, time 3 day): 229 mg/dL | Hb (72 h, time 3 day): 13.5 g/dL | Ht (72 h, time 3 day): 39.6% | Lym (72 h, time 3 day): 74.8% | MCHC (72 h, time 3 day): 34.1% | MCV (72 h, time 3 day): 62.7 fL | Mono (72 h, time 3 day): 3% | Neu (72 h, time 3 day): 20.4% | PT (72 h, time 3 day): 12.3 s | Plat (72 h, time 3 day): 122.3 x10_4/uL | RBC (72 h, time 3 day): 631.4 x10_4/ul | Ret (72 h, time 3 day): 6.4% | WBC (72 h, time 3 day): 91.2 x10_2/uL | KIDNEY_L (72 h, time 3 day): 1 g | KIDNEY_R (72 h, time 3 day): 1 g | KIDNEY_TOTAL (72 h, time 3 day): 2 g | LIVER (72 h, time 3 day): 11.2 g | ALP (72 h, time 3 day): 985.8 IU/L | ALT (72 h, time 3 day): 37.8 IU/L | AST (72 h, time 3 day): 72.6 IU/L | BUN (72 h, time 3 day): 16.2 mg/dL | CRE (72 h, time 3 day): 0.4 mg/dL | Ca (72 h, time 3 day): 10.9 mg/dL | DBIL (72 h, time 3 day): 0.096 mg/dL | GLC (72 h, time 3 day): 207.4 mg/dL | K (72 h, time 3 day): 3.9 meq/L | LDH (72 h, time 3 day): 213 IU/L | Na (72 h, time 3 day): 140.6 meq/L | PL (72 h, time 3 day): 162.4 mg/dL | RALB (72 h, time 3 day): 3.5 g/dL | TBIL (72 h, time 3 day): 0.1 mg/dL | TC (72 h, time 3 day): 77.6 mg/dL | TG (72 h, time 3 day): 113.2 mg/dL | TP (72 h, time 3 day): 5.8 g/dL | gamma-GTP (72 h, time 3 day): 1 IU/L | TERMINAL_BW ([…], time 7 day): 253.9 g | TERMINAL_BW ([…], time 14 day): 312.1 g | TERMINAL_BW ([…], time 28 day): 382 g | APTT ([…], time 7 day): 19.5 s | Bas ([…], time 7 day): 0% | Eos ([…], time 7 day): 1% | Fbg ([…], time 7 day): 218.2 mg/dL | Hb ([…], time 7 day): 13.6 g/dL | Ht ([…], time 7 day): 39.8% | Lym ([…], time 7 day): 78.4% | MCH ([…], time 7 day): 21.2 pg | MCV ([…], time 7 day): 61.9 fL | Mono ([…], time 7 day): 2.4% | Neu ([…], time 7 day): 17% | PT ([…], time 7 day): 12 s | Plat ([…], time 7 day): 117.4 x10_4/uL | RBC ([…], time 7 day): 642.8 x10_4/ul | Ret ([…], time 7 day): 5.1% | WBC ([…], time 7 day): 102.5 x10_2/uL | APTT ([…], time 14 day): 19.9 s | Bas ([…], time 14 day): 0% | Eos ([…], time 14 day): 0.8% | Fbg ([…], time 14 day): 231.8 mg/dL | Hb ([…], time 14 day): 14.4 g/dL | Ht ([…], time 14 day): 41.2% | Lym ([…], time 14 day): 81.4% | MCH ([…], time 14 day): 20.9 pg | MCHC ([…], time 14 day): 34.8% | MCV ([…], time 14 day): 59.9 fL | Mono ([…], time 14 day): 2.8% | Neu ([…], time 14 day): 13.8% | Plat ([…], time 14 day): 128.6 x10_4/uL | RBC ([…], time 14 day): 689.2 x10_4/ul | Ret ([…], time 14 day): 4.6% | WBC ([…], time 14 day): 85.2 x10_2/uL | APTT ([…], time 28 day): 21.2 s | Bas ([…], time 28 day): 0% | Eos ([…], time 28 day): 1% | Fbg ([…], time 28 day): 224.6 mg/dL | Hb ([…], time 28 day): 15.5 g/dL | Ht ([…], time 28 day): 43.9% | Lym ([…], time 28 day): 78.4% | MCH ([…], time 28 day): 19.9 pg | MCHC ([…], time 28 day): 35.4% | MCV ([…], time 28 day): 56.3 fL | Mono ([…], time 28 day): 2.4% | Neu ([…], time 28 day): 17.2% | PT ([…], time 28 day): 12.4 s | Plat ([…], time 28 day): 111.1 x10_4/uL | RBC ([…], time 28 day): 779.2 x10_4/ul | Ret ([…], time 28 day): 2.6% | WBC ([…], time 28 day): 92.4 x10_2/uL | KIDNEY_L ([…], time 7 day): 1.1 g | KIDNEY_R ([…], time 7 day): 1.1 g | KIDNEY_TOTAL ([…], time 7 day): 2.2 g | KIDNEY_L ([…], time 14 day): 1.2 g | KIDNEY_R ([…], time 14 day): 1.2 g | KIDNEY_TOTAL ([…], time 14 day): 2.5 g | KIDNEY_L ([…], time 28 day): 1.4 g | KIDNEY_R ([…], time 28 day): 1.3 g | KIDNEY_TOTAL ([…], time 28 day): 2.7 g | LIVER ([…], time 7 day): 12.1 g | LIVER ([…], time 14 day): 14.6 g | LIVER ([…], time 28 day): 15 g | ALP ([…], time 7 day): 963.6 IU/L | ALT ([…], time 7 day): 34 IU/L | AST ([…], time 7 day): 62.6 IU/L | BUN ([…], time 7 day): 16.6 mg/dL | CRE ([…], time 7 day): 0.4 mg/dL | Ca ([…], time 7 day): 10.6 mg/dL | DBIL ([…], time 7 day): 0.1 mg/dL | GLC ([…], time 7 day): 209.6 mg/dL | K ([…], time 7 day): 3.8 meq/L | LDH ([…], time 7 day): 179.6 IU/L | Na ([…], time 7 day): 140.4 meq/L | PL ([…], time 7 day): 158.4 mg/dL | RALB ([…], time 7 day): 3.4 g/dL | TBIL ([…], time 7 day): 0.2 mg/dL | TC ([…], time 7 day): 73.6 mg/dL | TG ([…], time 7 day): 116.6 mg/dL | TP ([…], time 7 day): 5.6 g/dL | gamma-GTP ([…], time 7 day): 1.6 IU/L | ALP ([…], time 14 day): 896.2 IU/L | ALT ([…], time 14 day): 40.6 IU/L | AST ([…], time 14 day): 70.8 IU/L | BUN ([…], time 14 day): 16.6 mg/dL | CRE ([…], time 14 day): 0.5 mg/dL | Ca ([…], time 14 day): 10.7 mg/dL | DBIL ([…], time 14 day): 0.09 mg/dL | GLC ([…], time 14 day): 233.8 mg/dL | K ([…], time 14 day): 3.5 meq/L | LDH ([…], time 14 day): 206.4 IU/L | Na ([…], time 14 day): 140.2 meq/L | PL ([…], time 14 day): 160.8 mg/dL | RALB ([…], time 14 day): 3.5 g/dL | TBIL ([…], time 14 day): 0.2 mg/dL | TG ([…], time 14 day): 117 mg/dL | TP ([…], time 14 day): 6 g/dL | gamma-GTP ([…], time 14 day): 1 IU/L | ALP ([…], time 28 day): 614.8 IU/L | ALT ([…], time 28 day): 37.6 IU/L | AST ([…], time 28 day): 61.6 IU/L | BUN ([…], time 28 day): 17.4 mg/dL | CRE ([…], time 28 day): 0.4 mg/dL | Ca ([…], time 28 day): 10.4 mg/dL | DBIL ([…], time 28 day): 0.1 mg/dL | GLC ([…], time 28 day): 214.4 mg/dL | K ([…], time 28 day): 3.7 meq/L | LDH ([…], time 28 day): 158.6 IU/L | Na ([…], time 28 day): 140.2 meq/L | PL ([…], time 28 day): 151 mg/dL | RALB ([…], time 28 day): 3.4 g/dL | TBIL ([…], time 28 day): 0.2 mg/dL | TC ([…], time 28 day): 67 mg/dL | TG ([…], time 28 day): 152.4 mg/dL
